Experimental data reported in ChEMBL document CHEMBL1208761, “Smoothened antagonists for hair inhibition” (Bioorg Med Chem Lett, 2010).
Converted amounts (≈) assume the structure as drawn. “And” between values parts separate entries of the source, which are not always exact repeats. Equal entries are not always repeated. The source made the active and inactive calls. No cut-off for these calls is given here.

How the values were obtained:
[1] = target: T1, Protein smoothened (Homo sapiens, UniProt Q99835); assay: Inhibition of Smoothened transfected in HEK293 cells by transient transfection cell-based assay
[2] = target: T1, Protein smoothened; assay: Inhibition of Smoothened transfected in HEK293 cells by binding assay; type: cell-based
[3] = species on record: Mus musculus; assay: Inhibition of hair growth in C3H/HeN mouse model assessed as inhibition of hair growth after 14 days; type: functional
[4] = target: Beta-2 adrenergic receptor (Homo sapiens, UniProt P07550); assay: Binding affinity to beta2 adrenergic receptor
[5] = target: T2, 5-hydroxytryptamine receptor 1A (Homo sapiens, UniProt P08908); assay: Binding affinity to 5HT1A receptor
T2 sequence (P08908 whole entry): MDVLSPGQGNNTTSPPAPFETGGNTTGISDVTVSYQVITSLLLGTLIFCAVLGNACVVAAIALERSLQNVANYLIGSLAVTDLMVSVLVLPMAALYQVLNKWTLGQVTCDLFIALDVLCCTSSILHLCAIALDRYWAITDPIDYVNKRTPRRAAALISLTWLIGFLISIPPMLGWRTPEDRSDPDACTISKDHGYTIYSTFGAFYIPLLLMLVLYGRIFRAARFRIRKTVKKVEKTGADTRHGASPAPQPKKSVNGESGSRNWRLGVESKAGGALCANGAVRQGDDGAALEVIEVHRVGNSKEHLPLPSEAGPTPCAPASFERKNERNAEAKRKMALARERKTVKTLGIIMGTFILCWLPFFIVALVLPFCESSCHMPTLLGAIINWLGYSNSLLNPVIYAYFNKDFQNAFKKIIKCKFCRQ

[6] = target: 5-hydroxytryptamine receptor 2B (Homo sapiens, UniProt P41595); assay: Binding affinity to 5HT2B receptor
[7] = target: 5-hydroxytryptamine receptor 7 (Homo sapiens, UniProt P34969); assay: Binding affinity to 5HT7 receptor
[8] = target: D(1A) dopamine receptor (Homo sapiens, UniProt P21728); assay: Binding affinity to dopamine D1 receptor
[9] = target: Beta-1 adrenergic receptor (Homo sapiens, UniProt P08588); assay: Binding affinity to beta-1 adrenergic receptor
[10] = Binding affinity to calcium channel
[11] = target: 5-hydroxytryptamine receptor 2A (Homo sapiens, UniProt P28223); assay: Binding affinity to 5HT2A receptor
[12] = target: D(2) dopamine receptor (Homo sapiens, UniProt P14416); assay: Binding affinity to dopamine D2 receptor
[13] = target: T3, Alpha-1B adrenergic receptor (Homo sapiens, UniProt P35368); assay: Binding affinity to adrenergic alpha-1b receptor
T3 sequence (P35368 whole entry): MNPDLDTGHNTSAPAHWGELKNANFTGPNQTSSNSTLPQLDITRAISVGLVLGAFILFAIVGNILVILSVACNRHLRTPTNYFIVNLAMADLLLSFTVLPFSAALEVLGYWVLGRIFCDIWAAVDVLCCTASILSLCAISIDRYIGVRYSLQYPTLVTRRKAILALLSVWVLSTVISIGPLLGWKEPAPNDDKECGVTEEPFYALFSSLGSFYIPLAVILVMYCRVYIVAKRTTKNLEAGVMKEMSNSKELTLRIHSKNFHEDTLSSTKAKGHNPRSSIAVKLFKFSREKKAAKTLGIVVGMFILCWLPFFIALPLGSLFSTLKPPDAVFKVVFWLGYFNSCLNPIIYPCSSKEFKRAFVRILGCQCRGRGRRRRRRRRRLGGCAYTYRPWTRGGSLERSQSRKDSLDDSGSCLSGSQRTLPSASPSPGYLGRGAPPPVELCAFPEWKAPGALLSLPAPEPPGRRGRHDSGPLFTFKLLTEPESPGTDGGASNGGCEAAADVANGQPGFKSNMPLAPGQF

[14] = Metabolic stability in human liver microsomes assessed as half life; type: ADME, Microsome
[15] = target: T4, D(4) dopamine receptor (Homo sapiens, UniProt P21917); assay: Binding affinity to dopamine D4 receptor
T4 sequence (P21917 whole entry): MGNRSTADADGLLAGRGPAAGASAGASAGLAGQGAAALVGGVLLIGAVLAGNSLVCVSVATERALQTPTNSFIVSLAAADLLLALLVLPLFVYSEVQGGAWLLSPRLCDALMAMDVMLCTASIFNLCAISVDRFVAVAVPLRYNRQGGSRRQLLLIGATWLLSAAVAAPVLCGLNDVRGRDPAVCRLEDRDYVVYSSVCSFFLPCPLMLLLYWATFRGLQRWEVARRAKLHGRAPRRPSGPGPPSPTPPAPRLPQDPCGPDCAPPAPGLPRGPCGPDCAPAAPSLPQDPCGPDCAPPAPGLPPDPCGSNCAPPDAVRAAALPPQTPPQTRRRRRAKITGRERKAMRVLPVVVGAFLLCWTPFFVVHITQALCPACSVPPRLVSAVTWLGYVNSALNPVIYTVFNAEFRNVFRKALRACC

[16] = Apparent permeability from apical to basolateral side of cell membrane at 10 uM; type: ADME; settings: not told
[17] = target: hERG (KCNH2) (Homo sapiens, UniProt Q12809); assay: Inhibition of human ERG at 3 uM
[18] = Inhibition of CYP450; type: ADME
[19] = test system: Zone of skin; assay: Permeability of the compound in human skin assessed as skin penetration relative to isobutylmethylxanthine; type: ADME, tissue-based
[20] = target: T5, Alpha-1A adrenergic receptor (Homo sapiens, UniProt P35348); assay: Binding affinity to adrenergic Alpha-1A receptor
T5 sequence (P35348 whole entry): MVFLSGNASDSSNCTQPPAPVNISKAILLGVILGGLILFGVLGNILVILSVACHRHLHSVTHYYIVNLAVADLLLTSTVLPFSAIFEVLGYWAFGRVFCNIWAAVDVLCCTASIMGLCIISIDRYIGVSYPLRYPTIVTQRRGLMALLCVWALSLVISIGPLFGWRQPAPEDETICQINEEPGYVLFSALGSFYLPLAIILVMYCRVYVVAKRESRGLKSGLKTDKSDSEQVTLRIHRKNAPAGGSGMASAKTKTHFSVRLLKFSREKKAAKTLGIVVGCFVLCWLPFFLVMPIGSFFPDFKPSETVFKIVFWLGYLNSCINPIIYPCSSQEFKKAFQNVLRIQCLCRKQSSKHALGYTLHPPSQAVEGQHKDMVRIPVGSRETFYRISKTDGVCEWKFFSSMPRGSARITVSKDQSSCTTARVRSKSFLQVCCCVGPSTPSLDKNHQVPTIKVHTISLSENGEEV

[21] = Metabolic stability in rat liver microsomes assessed as half life; type: ADME, Microsome
[22] = target: Voltage-gated inwardly rectifying potassium channel KCNH2 (Homo sapiens, UniProt Q12809); assay: Binding affinity to human ERG
[23] = Solubility of the compound; type: physicochemical

T1 sequence (Q99835 whole entry): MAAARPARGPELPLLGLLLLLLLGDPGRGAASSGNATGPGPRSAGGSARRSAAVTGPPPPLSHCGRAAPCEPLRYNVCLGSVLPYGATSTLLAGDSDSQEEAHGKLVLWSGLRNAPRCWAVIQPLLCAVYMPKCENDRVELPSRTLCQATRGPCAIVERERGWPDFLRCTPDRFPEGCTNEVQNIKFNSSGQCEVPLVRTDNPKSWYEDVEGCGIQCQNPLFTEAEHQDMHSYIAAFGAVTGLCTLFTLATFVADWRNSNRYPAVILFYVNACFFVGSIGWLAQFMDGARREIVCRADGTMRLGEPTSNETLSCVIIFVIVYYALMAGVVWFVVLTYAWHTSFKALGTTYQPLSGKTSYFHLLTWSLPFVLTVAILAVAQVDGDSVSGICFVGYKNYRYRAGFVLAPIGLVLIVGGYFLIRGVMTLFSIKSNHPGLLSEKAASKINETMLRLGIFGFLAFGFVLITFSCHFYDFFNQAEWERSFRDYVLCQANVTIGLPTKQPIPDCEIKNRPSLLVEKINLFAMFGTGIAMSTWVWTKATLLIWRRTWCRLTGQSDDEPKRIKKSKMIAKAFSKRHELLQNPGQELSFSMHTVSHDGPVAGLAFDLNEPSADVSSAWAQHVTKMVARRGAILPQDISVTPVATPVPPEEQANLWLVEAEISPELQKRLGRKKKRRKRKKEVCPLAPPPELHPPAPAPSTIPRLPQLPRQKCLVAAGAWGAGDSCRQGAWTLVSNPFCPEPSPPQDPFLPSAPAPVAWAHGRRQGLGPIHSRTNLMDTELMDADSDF
5-hydroxytryptamine receptor 2A, sequence (P28223 whole entry): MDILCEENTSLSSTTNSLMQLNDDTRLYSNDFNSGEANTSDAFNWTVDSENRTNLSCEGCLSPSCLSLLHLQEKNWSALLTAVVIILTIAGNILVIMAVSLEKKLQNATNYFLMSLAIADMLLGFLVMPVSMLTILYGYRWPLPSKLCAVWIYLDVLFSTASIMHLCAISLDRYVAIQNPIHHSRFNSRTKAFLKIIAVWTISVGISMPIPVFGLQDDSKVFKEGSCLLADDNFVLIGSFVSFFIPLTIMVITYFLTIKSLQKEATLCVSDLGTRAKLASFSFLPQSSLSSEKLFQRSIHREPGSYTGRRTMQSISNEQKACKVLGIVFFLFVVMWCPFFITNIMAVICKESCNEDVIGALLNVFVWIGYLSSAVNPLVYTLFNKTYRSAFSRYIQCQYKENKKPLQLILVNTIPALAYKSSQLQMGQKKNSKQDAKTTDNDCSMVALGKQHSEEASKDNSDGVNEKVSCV
5-hydroxytryptamine receptor 2B, sequence (P41595 whole entry): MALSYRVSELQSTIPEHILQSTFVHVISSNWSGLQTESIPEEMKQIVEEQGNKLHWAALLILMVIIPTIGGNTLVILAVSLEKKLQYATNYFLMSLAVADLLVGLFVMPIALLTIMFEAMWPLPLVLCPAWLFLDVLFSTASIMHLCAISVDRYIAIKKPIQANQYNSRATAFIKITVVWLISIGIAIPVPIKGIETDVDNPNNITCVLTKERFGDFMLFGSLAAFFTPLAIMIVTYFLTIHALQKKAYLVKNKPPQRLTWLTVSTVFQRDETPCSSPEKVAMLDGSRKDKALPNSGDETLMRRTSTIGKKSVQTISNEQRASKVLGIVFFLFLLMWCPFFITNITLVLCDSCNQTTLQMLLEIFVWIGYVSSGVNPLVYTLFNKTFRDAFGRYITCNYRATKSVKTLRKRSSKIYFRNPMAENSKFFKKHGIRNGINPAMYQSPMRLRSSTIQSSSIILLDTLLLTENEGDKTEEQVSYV
D(2) dopamine receptor, sequence (P14416 whole entry): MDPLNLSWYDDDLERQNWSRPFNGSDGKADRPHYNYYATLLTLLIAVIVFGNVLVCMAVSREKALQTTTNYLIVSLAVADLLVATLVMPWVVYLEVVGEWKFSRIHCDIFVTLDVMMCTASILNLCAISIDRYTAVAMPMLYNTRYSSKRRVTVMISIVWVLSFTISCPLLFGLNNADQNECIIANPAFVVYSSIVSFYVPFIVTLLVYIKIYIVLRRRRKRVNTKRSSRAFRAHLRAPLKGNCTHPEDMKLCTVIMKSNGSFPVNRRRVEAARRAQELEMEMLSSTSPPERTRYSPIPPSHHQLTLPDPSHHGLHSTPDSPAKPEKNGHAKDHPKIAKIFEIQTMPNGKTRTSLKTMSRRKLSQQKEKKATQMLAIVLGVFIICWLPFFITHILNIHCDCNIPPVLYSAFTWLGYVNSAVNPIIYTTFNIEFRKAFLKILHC
5-hydroxytryptamine receptor 7, sequence (P34969 whole entry): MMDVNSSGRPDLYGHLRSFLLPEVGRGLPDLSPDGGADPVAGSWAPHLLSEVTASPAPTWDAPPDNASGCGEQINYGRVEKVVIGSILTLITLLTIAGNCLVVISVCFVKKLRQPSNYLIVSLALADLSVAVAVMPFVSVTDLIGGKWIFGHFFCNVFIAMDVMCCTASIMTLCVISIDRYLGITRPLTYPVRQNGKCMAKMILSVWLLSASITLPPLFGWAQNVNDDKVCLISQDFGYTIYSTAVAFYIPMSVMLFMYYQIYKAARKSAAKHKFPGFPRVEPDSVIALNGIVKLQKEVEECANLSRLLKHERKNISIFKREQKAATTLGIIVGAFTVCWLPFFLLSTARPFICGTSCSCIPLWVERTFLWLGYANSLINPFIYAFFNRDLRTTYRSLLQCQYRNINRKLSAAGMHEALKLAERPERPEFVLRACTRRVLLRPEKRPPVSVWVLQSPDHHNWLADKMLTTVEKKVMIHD
Beta-1 adrenergic receptor, sequence (P08588 whole entry): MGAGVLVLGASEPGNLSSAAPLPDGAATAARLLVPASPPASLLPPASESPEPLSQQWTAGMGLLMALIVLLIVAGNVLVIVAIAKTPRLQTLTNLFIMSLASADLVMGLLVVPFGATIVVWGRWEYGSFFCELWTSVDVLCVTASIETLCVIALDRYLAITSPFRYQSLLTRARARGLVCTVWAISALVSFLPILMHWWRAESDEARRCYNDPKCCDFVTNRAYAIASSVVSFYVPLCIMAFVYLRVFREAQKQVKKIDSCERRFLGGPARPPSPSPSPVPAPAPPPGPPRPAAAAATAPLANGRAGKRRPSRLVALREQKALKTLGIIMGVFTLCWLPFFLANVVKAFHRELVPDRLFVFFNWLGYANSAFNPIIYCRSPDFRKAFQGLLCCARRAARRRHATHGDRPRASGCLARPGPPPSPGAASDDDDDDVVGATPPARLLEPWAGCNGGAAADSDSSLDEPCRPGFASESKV
hERG (KCNH2), sequence (Q12809 whole entry): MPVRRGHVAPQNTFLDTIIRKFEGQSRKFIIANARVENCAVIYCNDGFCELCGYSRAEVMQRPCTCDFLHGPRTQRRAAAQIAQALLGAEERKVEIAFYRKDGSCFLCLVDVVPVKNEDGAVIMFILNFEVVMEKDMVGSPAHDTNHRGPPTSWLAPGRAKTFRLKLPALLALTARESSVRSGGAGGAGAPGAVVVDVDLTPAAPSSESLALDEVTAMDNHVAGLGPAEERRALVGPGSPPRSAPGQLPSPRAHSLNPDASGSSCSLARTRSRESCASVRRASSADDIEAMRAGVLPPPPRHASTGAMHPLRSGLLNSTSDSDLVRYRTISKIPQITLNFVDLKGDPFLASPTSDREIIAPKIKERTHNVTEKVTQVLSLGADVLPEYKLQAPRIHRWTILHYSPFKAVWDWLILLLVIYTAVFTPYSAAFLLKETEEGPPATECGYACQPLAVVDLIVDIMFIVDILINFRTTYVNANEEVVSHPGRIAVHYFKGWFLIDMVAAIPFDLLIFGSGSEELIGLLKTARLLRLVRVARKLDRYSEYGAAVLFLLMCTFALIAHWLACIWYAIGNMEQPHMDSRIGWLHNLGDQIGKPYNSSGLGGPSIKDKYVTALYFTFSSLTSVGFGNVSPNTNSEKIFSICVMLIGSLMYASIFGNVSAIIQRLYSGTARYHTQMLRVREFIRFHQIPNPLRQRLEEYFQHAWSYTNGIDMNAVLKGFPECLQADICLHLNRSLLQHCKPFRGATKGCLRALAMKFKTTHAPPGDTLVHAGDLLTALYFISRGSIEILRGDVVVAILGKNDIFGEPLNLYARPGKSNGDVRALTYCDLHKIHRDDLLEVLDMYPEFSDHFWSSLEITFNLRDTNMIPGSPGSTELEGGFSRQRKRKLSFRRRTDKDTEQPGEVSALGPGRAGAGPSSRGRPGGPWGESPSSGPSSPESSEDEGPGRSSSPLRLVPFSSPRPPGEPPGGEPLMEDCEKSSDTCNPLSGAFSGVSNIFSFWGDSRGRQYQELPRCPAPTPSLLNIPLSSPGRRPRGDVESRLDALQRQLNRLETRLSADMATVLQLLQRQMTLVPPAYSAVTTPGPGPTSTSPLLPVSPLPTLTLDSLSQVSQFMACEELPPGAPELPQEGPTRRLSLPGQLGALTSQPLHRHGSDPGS
D(1A) dopamine receptor, sequence (P21728 whole entry): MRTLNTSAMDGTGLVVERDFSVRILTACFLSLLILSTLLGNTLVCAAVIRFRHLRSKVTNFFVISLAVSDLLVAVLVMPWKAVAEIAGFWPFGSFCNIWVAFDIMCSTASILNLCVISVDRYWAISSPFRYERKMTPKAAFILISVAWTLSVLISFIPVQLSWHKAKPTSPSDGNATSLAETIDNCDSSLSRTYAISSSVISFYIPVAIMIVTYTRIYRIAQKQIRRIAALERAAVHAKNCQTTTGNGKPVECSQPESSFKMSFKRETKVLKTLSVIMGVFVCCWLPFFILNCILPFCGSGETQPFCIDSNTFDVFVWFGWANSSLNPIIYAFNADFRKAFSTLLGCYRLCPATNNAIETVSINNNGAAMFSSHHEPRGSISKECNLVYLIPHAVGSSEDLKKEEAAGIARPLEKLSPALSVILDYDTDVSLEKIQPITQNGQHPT

SMILES	IC50 [1] [nM]	IC50 [2] [nM]	other results
Cc1nn(-c2ccccc2)c(C)c1/C=N/N1CCN(Cc2ccccc2)CC1	4.74	25	inhibition (INH) [3]: 3%
COc1ccccc1N1CCN(Cc2c(C)nn(-c3ccccc3)c2C)CC1	1870	> 5000	–
COc1ccc(OC)c(C2CCN(Cc3cnn(-c4ccccc4F)c3C)C2)c1 (configuration not stated)	40.8	216	Ki [4]: > 1000 nM; Ki [5]: 103 nM; Ki [6]: 180 nM; Ki [7]: 15 nM; Ki [8]: > 1000 nM; Ki [9]: > 1000 nM; Ki [10]: > 1000 nM; Ki [11]: > 1000 nM; Ki [12]: > 1000 nM; hair growth inhibition (active/inactive call) [3]: Active
COc1ccc(N2CCN(Cc3c(C)nn(-c4ccc(F)cc4)c3C)CC2)cc1	1690	2000	–
COc1cccc(F)c1OC1CN(Cc2cnn(-c3ccccc3)c2C)C1	8.27	124	Ki [5]: > 1000 nM; Ki [13]: > 1000 nM; half-life [14]: 30.2 min; Ki [15]: 148 nM and > 1000 nM; Papp A→B at 10 µM [16]: 11.3 ×10⁻⁶ cm/s; inhibition at 3 µM [17]: 56%; inhibition (INH) [18]: Not Active; Ratio [19]: 0.52; Ki [20]: 76 nM; half-life [21]: 9.7 min; Ki [22]: > 1000 nM; solubility [23]: 79 µg/mL (≈ 215 µM); Ki [11]: > 1000 nM; hair growth inhibition (active/inactive call) [3]: Active
Cc1c(CN2CCN(c3ccccc3)CC2)cnn1-c1ccccc1	78.4	96	–
COc1cccc(N2CCN(Cc3c(C)nn(-c4ccc(F)cc4)c3C)CC2)c1	823	20	–
NCCCC(N)(C(=O)O)C(F)F (configuration not stated) [EFLORNITHINE]	–	–	inhibition (INH) [3]: 13.9%

Continued, in another order:

IC50 [1] [nM]	IC50 [2] [nM]	SMILES	other results
> 5000	> 5000	Cc1nn(-c2ccccc2)cc1CN1CCN(c2ccc(F)cc2)CC1	–
328	333	Cc1c(CN2CCN(c3cccc(C(F)(F)F)c3)CC2)cnn1-c1ccccc1	–
64.7	5	COc1cccc(N2CCN(Cc3cnn(-c4ccc(F)cc4)c3C)CC2)c1	–
1860	10	Cc1nn(-c2ccccc2)c(Cl)c1CN1CCN(c2ccc(F)cc2)CC1	–
> 5000	> 5000	COc1ccc(N2CCN(Cc3cn(-c4ccccc4)nc3C)CC2)cc1	–
105	126	COc1ccc(N2CCN(Cc3cnn(-c4ccccc4)c3C)CC2)cc1	–
